Patent publication US7531550B2, “Pseudobase benzo[c]phenanthridines with improved efficacy, stability, and safety” (Yale University, priority 2006, dated 2009)

Assays:
Format in all cases: physicochemical
[1] = Conversion of chelerythrine pseudobases to parent chelerythrine in simulated gastric fluid (SGF); conditions: for conversion to chelerythrine chloride (1H NMR analysis): 1 mg in 5 mL, 37° C.
Procedure: Simulated Gastric Fluid (SGF): Sodium chloride (2 gm), 750 mL distilled water, and 7.0 mL of concentrated hydrochloric acid are added into a 1000 ml volumetric flask. The flask is swirled to mix and the volume brought to 1000 mL with distilled water. The pH should be approx. 1.2.
(§1) General conversion procedure: The pseudobases are placed in SGF or SIF at about 0.2 mg/mL concentration and placed in 37° C. bath with gentle stirring. For those pseudobases which have low aqueous solubility, up to 20% co-solvent such as methanol is added to facilitate dissolution. The progress of the conversion is followed by visual observation (color change) and ^1H NMR analysis.
(§2) 6-tert-Butoxy-5,6-dihydrochelerythrine (1 mg) is placed in 5 mL of simulated gastric fluid in a glass vial. The vial is gently placed in 37° C. bath with gentle stirring. The solid pseudobase gradually dissolves to give a yellow solution which is the characteristic color of the parent chelerythrine chloride.
as §2, with “6-Diethyl-(5,6-dihydrochelerythrine)-malonate” for “6-tert-Butoxy-5,6-dihydrochelerythrine”, “vial containing 10% methanol.” for “vial.”

[2] = Solubility of the chelerythrine ether dimer
Source text: (§3) The quaternary nitrogen imparts inherent chemical reactivity into these alkaloids. Nucleophiles can readily add to the adjacent carbon to create a neutral pseudobase. Water forms an unstable adduct with chelerythrine that can be seen in NMR studies. Additionally, 6-methoxy-5,6-dihydrochelerytherine and 6-ethoxy-5,6-dihydrochelerytherine (Artarine) have been reported as byproducts formed during the isolation of chelerythrine from plants utilizing methanol and ethanol extractions. The ability of this class of compounds to form pseudobases which can convert back to the quartenary […] is dependent on the solubility of the resulting pseudobase in biological media, the basicity of the leaving group adjacent to the position to become quartenary and the aromatic substitution pattern and nature of substituting agents (electron donating or withdrawing). Sanguinarine forms the hydroxyl psuedobase in pH 7.4 water to a higher extent than Chelerythrine. Under basic aqueous conditions, the hydroxypsuedobase of Cheleryturine will dimerize forming an ether bridge between two Chelerythrine molecules attached to the carbon adjacent to the ring nitrogen.

[3] = Conversion to chelerythrine in 0.1N HCL with 30% methanol; conditions: then 30% methanol added
Source text: as §3

[4] = Conversion of chelerythrine pseudobases to parent chelerythrine in simulated intestinal fluid (SIF); conditions: 1 mg in 5 mL, 37° C., after 4 h
Procedure: Simulated Intestinal Fluid (SIF): Monobasic potassium phosphate (6.8 gm) and sodium hydroxide (0.616 gm) are added into 250 ml of distilled water in a 1000 ml volumetric flask and swirled until dissolved. 700 ml distilled water is added and the pH checked. The pH is adjusted to pH 6.8+/−0.1 by adding either 0.2N sodium hydroxide or 0.2N hydrochloric acid and the volume is brought to 1000 ml.
as §1
as §2, with “N-(isopropyl)-5,6-dihydrochelerythrine-6-amine” for “6-tert-Butoxy-5,6-dihydrochelerythrine”, “intestinal” for “gastric”, “dissolved” for “dissolves”

## COc1ccc2c(c1OC)C(OC(C)(C)C)N(C)c1c-2ccc2cc3c(cc12)OCO3 (stereo not drawn) [compound 37, 6-tert-butoxy-5,6-dihydrochelerytherine]
[1]; simulated gastric fluid, after 2 h
  conversion to chelerythrine chloride (1H NMR analysis): complete conversion

## CCOC(=O)C(C(=O)OCC)C1c2c(ccc(OC)c2OC)-c2ccc3cc4c(cc3c2N1C)OCO4 (stereo not drawn) [compound 50, 6-diethyl-(5,6-dihydrochelerythrine)-malonate]
[1]; simulated gastric fluid containing 10% methanol, after 16 h
  conversion to chelerythrine chloride (1H NMR analysis): complete conversion

## COc1ccc2c(c1OC)C(OC1c3c(ccc(OC)c3OC)-c3ccc4cc5c(cc4c3N1C)OCO5)N(C)c1c-2ccc2cc3c(cc12)OCO3 (stereo not drawn) [compound 34, 6-(5,6-dihydrochelerytherin-6-yloxy)-5,6-dihydrochelerytherine]
[2]
  solubility: quite insoluble
[1]; simulated gastric fluids
  conversion to Chelerythrine in simulated gastric fluids: does not convert readily
[3]
  conversion to Chelerythrine: occurs rapidly

## COc1ccc2c(c1OC)C(NC(C)C)N(C)c1c-2ccc2cc3c(cc12)OCO3 (stereo not drawn) [compound 43, N-(isopropyl)-5,6-dihydrochelerythrine-6-amine]
[4]
  conversion to chelerythrine chloride (1H NMR analysis): complete conversion
